According to ChEMBL document CHEMBL1140459, “Synthesis of poison-frog alkaloids 233A, 235U, and 251AA and their inhibitory effects on neuronal nicotinic acetylcholine receptors” (Bioorg Med Chem Lett, 2007):

Experiments:
[1] = target: Neuronal acetylcholine receptor subunit alpha-7 (Homo sapiens, UniProt P36544); test: Inhibition of alpha-7 nAchR expressed in Xenopus laevis oocytes assessed as acetylcholine-induced current by voltage-clamp method; format: functional, cell-based, Oocyte
[2] = target: Neuronal acetylcholine receptor; alpha4/beta2 (Homo sapiens, UniProt P17787+P43681); test: Inhibition of alpha4beta2 nAchR expressed in Xenopus laevis oocytes assessed as acetylcholine-induced current by voltage-clamp method; format: cell-based, Oocyte
Chain of Neuronal acetylcholine receptor; alpha4/beta2 (P17787 whole entry): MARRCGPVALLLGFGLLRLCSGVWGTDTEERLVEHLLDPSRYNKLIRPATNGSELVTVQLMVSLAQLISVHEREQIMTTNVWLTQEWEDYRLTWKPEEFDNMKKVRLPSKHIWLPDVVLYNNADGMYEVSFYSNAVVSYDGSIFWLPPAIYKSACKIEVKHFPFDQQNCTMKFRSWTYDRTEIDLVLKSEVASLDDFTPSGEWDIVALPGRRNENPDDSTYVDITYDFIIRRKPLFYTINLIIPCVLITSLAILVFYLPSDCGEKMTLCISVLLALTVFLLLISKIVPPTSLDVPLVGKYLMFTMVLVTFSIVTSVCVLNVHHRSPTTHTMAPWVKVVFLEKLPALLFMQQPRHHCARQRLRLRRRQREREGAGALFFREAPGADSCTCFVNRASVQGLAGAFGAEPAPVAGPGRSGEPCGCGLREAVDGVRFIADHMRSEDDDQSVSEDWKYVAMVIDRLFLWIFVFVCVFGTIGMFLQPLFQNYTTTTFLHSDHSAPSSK
Chain of Neuronal acetylcholine receptor; alpha4/beta2 (P43681 whole entry): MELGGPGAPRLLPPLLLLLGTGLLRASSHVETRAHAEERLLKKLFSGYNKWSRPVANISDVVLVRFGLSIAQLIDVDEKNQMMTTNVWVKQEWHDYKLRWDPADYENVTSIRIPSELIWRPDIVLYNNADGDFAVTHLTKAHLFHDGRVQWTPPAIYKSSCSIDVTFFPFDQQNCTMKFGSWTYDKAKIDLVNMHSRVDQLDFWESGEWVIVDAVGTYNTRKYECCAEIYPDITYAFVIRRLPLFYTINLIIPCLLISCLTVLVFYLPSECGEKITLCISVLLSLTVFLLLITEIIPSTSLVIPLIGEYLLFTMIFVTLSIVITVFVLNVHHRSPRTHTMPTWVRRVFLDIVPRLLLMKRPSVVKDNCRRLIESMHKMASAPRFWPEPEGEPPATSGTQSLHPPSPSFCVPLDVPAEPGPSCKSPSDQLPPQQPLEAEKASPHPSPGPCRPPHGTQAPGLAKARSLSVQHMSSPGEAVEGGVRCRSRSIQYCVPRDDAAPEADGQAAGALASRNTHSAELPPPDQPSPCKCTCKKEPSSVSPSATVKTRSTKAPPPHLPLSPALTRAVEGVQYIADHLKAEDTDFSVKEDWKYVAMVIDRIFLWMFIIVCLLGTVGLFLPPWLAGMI

Chain of Neuronal acetylcholine receptor subunit alpha-7 (P36544 whole entry): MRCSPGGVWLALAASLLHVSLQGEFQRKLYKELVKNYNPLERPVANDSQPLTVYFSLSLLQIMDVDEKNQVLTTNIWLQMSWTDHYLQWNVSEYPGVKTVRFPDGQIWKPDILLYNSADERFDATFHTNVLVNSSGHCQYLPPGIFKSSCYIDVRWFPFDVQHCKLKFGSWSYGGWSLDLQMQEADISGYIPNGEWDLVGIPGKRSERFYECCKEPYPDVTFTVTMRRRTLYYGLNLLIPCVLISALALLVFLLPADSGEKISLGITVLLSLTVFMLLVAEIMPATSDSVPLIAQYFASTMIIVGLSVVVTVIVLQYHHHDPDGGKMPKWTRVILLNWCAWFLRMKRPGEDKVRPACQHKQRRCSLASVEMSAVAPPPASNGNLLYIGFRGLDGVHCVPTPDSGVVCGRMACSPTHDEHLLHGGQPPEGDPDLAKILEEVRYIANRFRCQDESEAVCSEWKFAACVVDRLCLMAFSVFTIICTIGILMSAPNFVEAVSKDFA

C#CCCC[C@@H]1CC[C@@H](CC)[C@@H]2CCCCN12
IC50 [1]: 7.4 µM
IC50 [2]: 5.1 µM

C=CCCC[C@@H]1CC[C@@H](CC)[C@@H]2CCCCN12
IC50 [1]: 5.2 µM
IC50 [2]: 3.5 µM

CCCCCC[C@@H]1CC[C@@H](CC)[C@@H]2CCCCN12
IC50 [1]: 4.1 µM
IC50 [2]: 2.5 µM
